These results are taken from patent US20160362416A1, “ANTIVIRAL COMPOUNDS” (Gilead Sciences, Inc., priority 2012, published 2016).

Data set [1] deals with stable HCV 1a RLuc replicon cells (genotype 1a H77 replicon). The experiment in a line: HCV genotype 1a RLuc replicon reporter assay. In kind it is cell-based. The following applies: Hepatitis C virus; stable genotype 1a H77 RLuc replicon cells, 72 hours.
In data set [2] the test system is NS5A chimeric genotype 2a JFH-1 replicon with genotype 2b MD2b-1 strain NS5A gene (M31). The experiment in a line: HCV genotype 2b NS5A chimeric replicon assay, stable (s). The following applies: Hepatitis C virus, 72 h, read-out: 2b (s) (nM). In kind it is cell-based. On the technique in general: In antiviral work, replicon cells carry a viral genome segment that copies itself.

In data set [3] the test system is stable HCV 2a JFH-1 Rluc replicon cells (L31 present in NS5A). In words: HCV genotype 2a JFH-1 RLuc replicon reporter assay. The following applies: Hepatitis C virus, 72 h, read-out: 2a JFH (nM). The format is cell-based.
The subject of data set [4] is Y93H in genotype 1a NS5A replicon. The experiment in a line: Resistance mutant replicon assay, genotype 1a NS5A Y93H. In kind it is cell-based, HCV. The following applies: Hepatitis C virus, read-out: 1a Y93H (nM). A digest of the protocol: (§1)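 Site-directed mutagenesis → mutant Pi-RLuc replicon RNA → transient transfection, cured-51 Huh-7 cells → 3-fold serial cpd dilutions from DMSO stock, 72 h → RLuc read → EC50, non-linear regression.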

Data set [5] is described as follows: IV and PO single dose pharmacokinetic studies in SD rats. In kind it is in vivo. To be noted: Sprague-Dawley, rat, plasma, male SD rats, IV infusion 1 mg/kg, oral gavage 2 mg/kg, read-out: Rat % F. As to the method:
IV and PO Single Dose Pharmacokinetic Studies in SD Rats: The pharmacokinetics of selected compounds was characterized in male Sprague-Dawley (SD) rats (250-300 g). In this study, two groups of naïve purebred SD rats (N=3 per group, fasted over night) received the selected compound either as an intravenous (IV) infusion (1 mg/kg over 30 minutes) via the jugular vein or by oral gavage (2 mg/kg). The intravenous (IV) dosing vehicle was 5% ethanol, 35% polyethylene glycol 400 (PEG 400) and 60% water pH 2.0. The oral dosing vehicle was 5% ethanol, 55% PEG 400 and 40% citrate buffer pH 2.2.
Serial blood samples (approximately 0.3 mL each) were collected from jugular vein or other suitable vein at specified time points. For the IV infusion group, the blood samples were collected predose and at 0.25, 0.48, 0.58, 0.75, 1.5, 3, 6, 8, 12 and 24 hours after the start of infusion. For the oral group, the blood samples were collected predose and at 0.25, 0.50, 1, 2, 4, 6, 8, 12 and 24 hours after dosing. The blood samples were collected into Vacutainer™ tubes containing EDTA-K3 as the anti-coagulant and were centrifuged at approximately 4° C. to obtain plasma. The plasma samples were stored at −20° C. until analysis by LC/MS/MS.
A bioanalytical method utilizing high performance liquid chromatography coupled to tandem mass spectrometry (LC/MS/MS) was developed for analysis of the selected compound in rat plasma. Detection was performed using selected reaction monitoring (SRM); Ions representing the precursor (M+H)^+ species was selected in quadrupole 1 (Q1) and collided with argon gas in the collision cell (Q2) to generate specific product ion, which was subsequently monitored by quadrupole 3 (Q3). Standard curve and quality control samples were prepared in male rat plasma and processed in the same way as the test samples to generate quantitative data.
Pharmacokinetic parameters were generated using non-compartmental pharmacokinetic analysis (Phoenix WinNonlin, version 6.3). Values below the lower limit of quantification (LLOQ) were assigned a value of zero if predose and treated as missing thereafter. Area under the curve (AUC) was calculated using the linear trapezoidal rule. The oral bioavailability (% F) was determined by comparison of the area under the curve (AUC) of the compound and/or a metabolite generated in plasma following oral administration to that generated following intravenous administration.

For data set [6], the system named is stable HCV 1b RLuc replicon cells (genotype 1b Con1 replicon). In words: HCV genotype 1b RLuc replicon reporter assay. The format is cell-based. To be noted: Hepatitis C virus; stable genotype 1b Con1 RLuc replicon cells, 72 hours. A digest of the protocol: (§2)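 Stable 1b Con1 RLuc replicon cells, or Huh-Lunet cells transiently transfected with chimeric replicons (Con1 backbone carrying 3a S52 or 4a ED43 NS5A; JFH-1 backbone carrying 2b MD2b-1 NS5A, M31), treated with 3-fold dilutions for 72 h. Renilla luciferase read after lysis; EC50 by non-linear regression.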

Data set [7] deals with Y93H in genotype 3a NS5A replicon. In words: Resistance mutant replicon assay, genotype 3a NS5A Y93H. The format is cell-based, HCV. To be noted: Hepatitis C virus, read-out: 3a Y93H (nM). A digest of the protocol: as §1
For data set [8], the system named is NS5A chimeric genotype 1b Con1 replicon with genotype 3a S52 strain NS5A gene. The experiment in a line: HCV genotype 3a NS5A chimeric replicon assay. To be noted: Hepatitis C virus, 72 h, read-out: 3a (nM). The format is cell-based. The procedure, abridged:
as §2

Data set [9] deals with NS5A chimeric genotype 2a JFH-1 replicon with genotype 2a J6 strain NS5A gene (M31). In words: HCV genotype 2a J6 NS5A chimeric replicon assay, transient (t). The format is cell-based. The following applies: Hepatitis C virus, 72 h, read-out: 2a J6 (t) (nM).
Data set [10] relates to Q30E in genotype 1a NS5A replicon. In words: Resistance mutant replicon assay, genotype 1a NS5A Q30E. In kind it is cell-based, HCV. The following applies: Hepatitis C virus, read-out: 1a Q30E (nM). Here is the method: (§3) Evaluation of cell-based anti-HCV activity: Antiviral potency (EC50) was determined using a Renilla luciferase (RLuc)-based HCV replicon reporter assay. To perform the assay for genotype 1 and 2a JFH-1, stable HCV 1a RLuc replicon cells (harboring a dicistronic genotype 1a H77 replicon that encodes a RLuc reporter), stable HCV lb RLuc replicon cells (harboring a dicistronic genotype 1b Conl replicon that encodes a RLuc reporter), or stable HCV 2a JFH-1 Rluc replicon cells (harboring a dicistronic genotype 2a JFH-1 replicon that encodes a RLuc reporter; with L31 present in NS5A) were dispensed into 384-well plates for EC50 assays. To perform the assay for genotype 2a (with M31 present in NS5A) or 2b, NS5A chimeric genotype 2a JFH-1 replicons that encodes a RLuc-Neo reporter and either genotype 2a J6 strain NS5A gene or genotype 2b MD2b-1 strain NS5A gene (both with M31 present) respectively, were either transiently transfected (t) into Huh-Lunet cells or were established as stably replicating replicon cells (s) is provided. Either cells were dispensed into 384-well plates for EC50 assays. To perform the assay for genotype 3 and 4, NS5A chimeric genotype 1b Conl replicons that encodes a Pi-RLuc reporter and either genotype 3a S52 strain NS5A gene or genotype 4a ED43 strain NS5A gene respectively, were transiently transfected (t) into Huh-Lunet cells, which were subsequently dispensed into 384-well plates. Compounds were dissolved in DMSO at a concentration of 10 mM and diluted in DMSO either manually or using an automated pipeting instrument. Serially 3-fold diluted compounds were either manually mixed with cell culture media and added to the seeded cells or directly added to the cells using an automated instrument. DMSO was used as a negative (solvent; no inhibition) control, and the protease inhibitor ITMN-191 was included at a concentration >100×EC50 as a positive control. 72 hours later, cells were lysed and Renilla luciferase activity quantified as recommended by the manufacturer (Promega-Madison, Wis.). Non-linear regression was performed to calculate EC50 values.
(§4) To determine the antiviral potency (EC50) against resistance mutants, resistance mutations, including M28T, Q30R, Q30H, Q30E, L31M, Y93C, Y93H, and Y93N in genotype 1a NS5A, Y93H and L31V/Y93H in genotype 1b NS5A, and Y93H for in genotype 3a NS5A, were introduced individually into either 1a Pi-Rluc or 1b Pi-Rluc replicons by site directed mutagenesis. Replicon RNA of each resistant mutant was transiently transfected into Huh-7-derived cured-51 cells and antiviral potency was determined on these transfected cells as described above.

The test system of data set [11] is NS5A chimeric genotype 1b Con1 replicon with genotype 4a ED43 strain NS5A gene. The experiment in a line: HCV genotype 4a NS5A chimeric replicon assay. The format is cell-based. The following applies: Hepatitis C virus, 72 h, read-out: 4a (s) (nM).
Data set [12] has as its system NS5A chimeric genotype 2a JFH-1 replicon with genotype 2b MD2b-1 strain NS5A gene (M31). In words: HCV genotype 2b NS5A chimeric replicon assay, transient (t). The format is cell-based. To be noted: Hepatitis C virus, 72 h, read-out: 2b (t) (nM). Here is the method: as §3
The subject of data set [13] is Y93N in genotype 1a NS5A replicon. In words: Resistance mutant replicon assay, genotype 1a NS5A Y93N. In kind it is cell-based, HCV. To be noted: Hepatitis C virus, read-out: 1a Y93N (nM). A digest of the protocol:
as §1

The test system of data set [14] is L31V/Y93H in genotype 1b NS5A replicon. The experiment in a line: Resistance mutant replicon assay, genotype 1b NS5A L31V/Y93H. In kind it is cell-based, HCV. The following applies: Hepatitis C virus, read-out: 1b L31V/Y93H (nM). As to the method: as §3, §4

Molecules are shown by their SMILES.

For `COC(=O)N[C@H](C(=O)N1[C@@H](C)CC[C@H]1c1ncc(-c2ccc3c(c2)COc2cc4c(ccc5nc([C@@H]6CC[C@H](C)N6C(=O)[C@@H](NC(=O)OC)C6CCOCC6)[nH]c54)cc2-3)[nH]1)C(C)C` [Comp 5, reference compound], the EC50 in [1] stood at 0.022 nM; in data set [2] it was 0.054 nM; in data set [3], 0.013 nM; in data set [4] it was 0.466 nM; in data set [6], 0.029 nM; in data set [7], 0.549 nM. For the same compound, the EC50 was 0.041 nM in data set [8], 0.012 nM in data set [9] and 0.297 nM in [10]. Also, the bioavailability in data set [5] was 22%.

Consider `COC(=O)N[C@H](C(=O)N1[C@@H](C)CC[C@H]1c1nc2ccc3cc4c(cc3c2[nH]1)OCc1cc(-c2cnc([C@@H]3CC[C@H](C)N3C(=O)[C@@H](NC(=O)OC)C3CCOCC3)[nH]2)ccc1-4)C(C)C` [Comp 7, reference compound], for which the EC50 in data set [1] stood at 0.018 nM; in data set [2], 0.088 nM; in [3], 0.015 nM; in data set [11], 0.019 nM; in data set [6] it was 0.028 nM; in data set [12] it was 0.037 nM. Besides, the EC50 in [8] and in [9] was 0.035 nM in each case. Moreover, the bioavailability in [5] came to 10.2%.

With `COC[C@H]1C[C@@H](c2ncc(-c3ccc4c(c3)COc3cc5c(ccc6nc([C@@H]7CC[C@H](C)N7C(=O)[C@@H](NC(=O)OC)C(C)C)[nH]c65)cc3-4)[nH]2)N(C(=O)[C@@H](NC(=O)OC)C2C[C@@H](C)O[C@H](C)C2)C1` (stereo partly drawn) [Example AB, Methyl {(2S)-1-[(2S,5S)-2-(9-{2-[(2S,4S)-1-{(2S)-2-[(2R,6R)-2,6-dimethyltetrahydro-2H-pyran-4-yl]-2-[(methoxycarbonyl)amino]acetyl}-4-(methoxymethyl)pyrrolidin-2-yl]-1H-imidazol-5-yl}-1,11-dihydroisochromeno[4′,3′:6,7]naphtho[1,2-d]imidazol-2-yl)-5-methylpyrrolidin-1-yl]-3-methyl-1-oxobutan-2-yl}carbamate], the EC50 in data set [1] turned out to be 0.026 nM; in data set [13], 0.418 nM; in data set [3] it was 0.011 nM; in data set [11], 0.006 nM; in [4] it was 0.163 nM; in data set [6], 0.046 nM. The EC50 in data set [12] turned out to be 0.024 nM; in data set [7] it was 8.77 nM; in data set [8] it was 0.025 nM; in data set [9], 0.028 nM; in [14] it was 0.668 nM; in [10], 0.082 nM.

Take `CC[C@H]1CC[C@@H](c2nc3ccc4cc5c(cc4c3[nH]2)OCc2cc(-c3cnc([C@@H]4CC[C@H](C)N4C(=O)[C@@H](NC(=O)OC)C(C)C)[nH]3)ccc2-5)N1C(=O)[C@@H](NC(=O)OC)[C@H]1CCCOC1` [Example AG, Methyl{(1S)-2-[(2S,5S)-2-ethyl-5-(9-{2-[(2S,5S)-1-{(2S)-2[(methoxycarbonyl)amino]-3-methylbutanoyl}-5-methylpyrrolidin-2-yl]-1H-imidazol-5-yl}-1,11-dihydroisochromeno[4′,3′:6,7]naphtho[1,2-d]imidazol-2-yl)pyrrolidin-1-yl]-2-oxo-1-[(3R)-tetrahydro-2H-pyran-3-yl]ethyl}carbamate]: the EC50 was found to be 0.023 nM in [1]; 0.092 nM in data set [2]; 0.025 nM in data set [3]; 0.014 nM in [11]; 0.026 nM in [6]; 0.137 nM in data set [8]. Also, the EC50 in data set [9] amounted to 0.121 nM. The bioavailability in data set [5] was 27.8%.

As for `CC[C@H](C)[C@H](NC(=O)OC)C(=O)N1[C@@H](C)CC[C@H]1c1nc2ccc3cc4c(cc3c2[nH]1)OCc1cc(-c2cnc([C@@H]3CC[C@H](C)N3C(=O)[C@@H](NC(=O)OC)C3C[C@@H](C)O[C@H](C)C3)[nH]2)ccc1-4` (stereo partly drawn) [Example BL, methyl{(2S,3S)-1-[(2S,5S)-2-(9-{2-[(2S,5S)-1-{(2S)-2-[(2R,6R)-2,6-dimethyltetrahydro-2H-pyran-4-yl]-2-[(methoxycarbonyl)amino]acetyl}-5-methylpyrrolidin-2-yl]-1H-imidazol-5-yl}-1,11-dihydroisochromeno[4′,3′:6,7]naphtho[1,2-d]imidazol-2-yl)-5-methylpyrrolidin-1-yl]-3-methyl-1-oxopentan-2-yl}carbamate], the EC50 amounted to 0.018 nM in data set [1]; 0.531 nM in data set [13]; 0.009 nM in data set [3]; 0.006 nM in [11]; 0.228 nM in [4]; 0.024 nM in [6]. Besides, the EC50 in [12] was 0.021 nM; in [7], 1.05 nM; in [8] it was 0.014 nM; in data set [9] it was 0.022 nM.
